Experimental data published in patent US20260078158A1, “COMPOSITIONS COMPRISING CXCL10-DERIVED PEPTIDES AND METHODS OF USE THEREOF” (priority 2022, published 2026).
Read-outs that look alike come from different tables or passages of the source.

How the values were obtained:
Assay in all cases: microbe, parasite or virus in culture
[1] = tested on: Acinetobacter baumannii-calcoaceticus complex; type: cell-based; conditions: Acinetobacter, ABC species complex, read-out: MIC
[2] = tested on: Pseudomonas aeruginosa; type: cell-based
[3] = tested on: Streptococcus pneumoniae; type: cell-based
[4] = tested on: Escherichia coli; type: cell-based; conditions: Escherichia coli, read-out: MIC
[5] = tested on: Enterococcus faecalis; type: cell-based
[6] = tested on: Staphylococcus aureus; type: cell-based; conditions: Staphylococcus aureus, read-out: MIC
[7] = tested on: Klebsiella pneumoniae
[8] = tested on: Enterococcus faecium; type: cell-based; conditions: Enterococcus faecium
[9] = tested on: E. cloacae species complex; type: cell-based, Enterobacter cloacae; conditions: Enterobacter cloacae, read-out: MIC

Measured: MIC

C[C@H]1COc2c(N3CCN(C)CC3)c(F)cc3c(=O)c(C(=O)O)cn1c23 [Levofloxacin, reference compound]
>64 µg/mL: [8]; Collection No. 1208412, VRE
16 µg/mL: [1]; Collection No. 1215098, MDR | [2]; Pseudomonas aeruginosa, Collection No. 1202638, MDR, read-out: MIC | [6]; MRSA, Collection No. 1190388, MRSA
1 µg/mL: [2]; Pseudomonas aeruginosa, ATCC27853, Pseudomonas aeruginosa ATCC 27853, QC, read-out: MIC | [3]; Streptococcus pneumoniae, Collection No. 1200385, PEN-S, read-out: MIC | [3]; Streptococcus pneumoniae, Collection No. 1219456, PEN-R | [3]; Streptococcus pneumoniae, Collection No. 1219876, PEN-R | [3]; Streptococcus pneumoniae, Collection No. 1223661, PEN-R | [3]; Streptococcus pneumoniae, Collection No. 1227224, PEN-S | [6]; MRSA, Collection No. 1221979, MRSA | [7]; ATCC700603, Klebsiella pneumoniae ATCC 700603, ESBL
0.5 µg/mL: [2]; Pseudomonas aeruginosa ATCC 27853, QC | [2]; Pseudomonas aeruginosa, Collection No. 1210081, non-MDR, read-out: MIC | [2]; Pseudomonas aeruginosa, Collection No. 1242554, non-MDR, read-out: MIC | [3]; ATCC49619, Streptococcus pneumoniae ATCC 49619, QC, read-out: MIC | [5]; ATCC29212, Enterococcus faecalis ATCC 29212, QC, read-out: MIC
0.12 µg/mL: [1]; Collection No. 1204424, non-MDR
> 64 µg/mL: [6]; MRSA, Collection No. 1189667, MRSA/MDR | [8]; Collection No. 1196024, VRE, read-out: MIC
0.25 µg/mL: [1]; Collection No. 1216520, non-MDR | [2]; Pseudomonas aeruginosa, Collection No. 1190985, non-MDR, read-out: MIC | [2]; Pseudomonas aeruginosa, Collection No. 1263496, MDR, read-out: MIC | [9]; E. cloacae species complex, Collection No. 1197959, non-MDR
8 µg/mL: [4]; Collection No. 1231795, MDR, ESBL | [4]; Collection No. 1232428, MDR (COL-R), ESBL | [4]; Collection No. 1248389, ESBL | [6]; MRSA / USA300, Staphylococcus aureus, Collection No. 1124691, MRSA (USA300)/MDR | [8]; Collection No. 1222807, VSE, read-out: MIC | [9]; E. cloacae species complex, Collection No. 1232701, MDR
64 µg/mL: [7]; BAA1705, Klebsiella pneumoniae ATCC BAA 1705, KPC
0.06 µg/mL: [1]; Collection No. 1208060, non-MDR | [7]; Collection No. 1230887, non-MDR
32 µg/mL: [1]; Collection No. 1215088, MDR | [4]; Collection No. 1191008, MDR, ESBL | [5]; Enterococcus faecalis, Collection No. 1204777, VRE, read-out: MIC | [5]; Enterococcus faecalis, Collection No. 1211589, VRE | [6]; MRSA, Collection No. 1189809, MRSA/MDR
0.015 µg/mL: [4]; ATCC25922, Escherichia coli ATCC 25922, QC | [9]; Collection No. 1230117, non-MDR
0.03 µg/mL: [4]; ATCCBAA2452, Escherichia coli ATCC BAA-2452, NDM-1 | [7]; Collection No. 1236064, non-MDR | [9]; B. cloacae species complex, Collection No. 1204419, non-MDR | [9]; E. cloacae species complex, Collection No. 1230601, non-MDR
